{"source": "ChEMBL document CHEMBL1147529", "about": "“Discovery and optimization of 2-aryl oxazolo-pyrimidines as adenosine kinase inhibitors using liquid phase parallel synthesis” (Bioorg Med Chem Lett, 2004)"}
{"molecular_target": "Adenosine kinase (Homo sapiens, UniProt P55263)", "sequence (P55263 whole entry)": "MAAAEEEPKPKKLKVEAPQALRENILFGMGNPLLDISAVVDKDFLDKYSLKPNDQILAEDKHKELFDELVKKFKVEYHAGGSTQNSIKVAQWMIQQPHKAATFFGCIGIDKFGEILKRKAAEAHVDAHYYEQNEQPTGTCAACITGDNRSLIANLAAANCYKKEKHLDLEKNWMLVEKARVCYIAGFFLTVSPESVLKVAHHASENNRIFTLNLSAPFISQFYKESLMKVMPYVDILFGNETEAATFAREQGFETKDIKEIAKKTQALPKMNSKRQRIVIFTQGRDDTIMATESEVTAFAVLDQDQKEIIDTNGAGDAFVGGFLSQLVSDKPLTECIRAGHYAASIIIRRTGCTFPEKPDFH", "assay": "Inhibitory activity against human adenosine kinase expressed in Escherichia coli", "units": {"IC50": "nM"}}
{"compound": "c1ccc(CN2CCC3CN(c4ncnc5oc(-c6ccncc6)nc45)CC32)cc1", "note": "(configuration not stated)", "IC50": "> 1000"}
{"compound": "c1ccc(CCCNc2ncnc3oc(-c4ccccc4)nc23)cc1", "IC50": 230}
{"compound": "Clc1ccc(-c2nc3c(N4CC5CCN(Cc6ccccc6)C5C4)ncnc3o2)cn1", "note": "(configuration not stated)", "IC50": 70}
{"compound": "O=C(Nc1cccc(-c2nc3c(N4CC5CCN(Cc6ccccc6)C5C4)ncnc3o2)c1)c1ccccc1", "note": "(configuration not stated)", "IC50": 90}
{"compound": "c1ccc(CN2CC[C@@H]3CN(c4ncnc5oc(-c6ccccc6)nc45)C[C@@H]32)cc1", "IC50": 120}
{"compound": "O=C(Nc1ccc(-c2nc3c(N4CC5CCN(Cc6ccccc6)C5C4)ncnc3o2)cc1)c1ccc(C(F)(F)F)cc1", "note": "(configuration not stated)", "IC50": "> 10000"}
{"compound": "Brc1cccc(-c2nc3c(N4CC5CCN(Cc6ccccc6)C5C4)ncnc3o2)c1", "note": "(configuration not stated)", "IC50": 260}
{"compound": "O=C(Nc1ccc(-c2nc3c(N4CC5CCN(Cc6ccccc6)C5C4)ncnc3o2)cc1)c1ccc(F)cc1", "note": "(configuration not stated)", "IC50": 130}
{"compound": "CCCCNc1ncnc2oc(-c3ccccc3)nc12", "IC50": "> 10000"}
{"compound": "Fc1ccc(CN2CCCN(c3ncnc4oc(-c5ccccc5)nc34)CC2)cc1", "IC50": "> 1000"}
{"compound": "c1ccc(CN2CCN(c3ncnc4oc(-c5ccccc5)nc34)CC2)cc1", "IC50": "> 10000"}
{"compound": "COCC(=O)Nc1ccc(-c2nc3c(N4CC5CCN(Cc6ccccc6)C5C4)ncnc3o2)cc1", "note": "(configuration not stated)", "IC50": 40}
{"compound": "COCCNc1ncnc2oc(-c3ccccc3)nc12", "IC50": "> 10000"}
{"compound": "Nc1ccc(-c2nc3c(N4CC5CCN(Cc6ccccc6)C5C4)ncnc3o2)cc1", "note": "(configuration not stated)", "IC50": 50}
{"compound": "c1ccc(CN2CCC3CN(c4ncnc5oc(-c6ccc(-c7cccs7)cc6)nc45)CC32)cc1", "note": "(configuration not stated)", "IC50": 90}
{"compound": "O=C(Nc1cccc(-c2nc3c(N4CC5CCN(Cc6ccccc6)C5C4)ncnc3o2)c1)c1ccc(F)cc1", "note": "(configuration not stated)", "IC50": 200}
{"compound": "COCC(=O)Nc1cccc(-c2nc3c(N4CC5CCN(Cc6ccccc6)C5C4)ncnc3o2)c1", "note": "(configuration not stated)", "IC50": 40}
{"compound": "O=C(Nc1ccc(-c2nc3c(N4CC5CCN(Cc6ccccc6)C5C4)ncnc3o2)cc1)c1ccccc1", "note": "(configuration not stated)", "IC50": 70}
{"compound": "CN(CCCNc1ncnc2oc(-c3ccccc3)nc12)c1ccccc1", "IC50": 270}
{"compound": "c1ccc(CN2CC3CN(c4ncnc5oc(-c6ccccc6)nc45)CC3C2)cc1", "note": "(configuration not stated)", "IC50": "> 10000"}
{"compound": "O=C(Nc1cccc(-c2nc3c(N4CC5CCN(Cc6ccccc6)C5C4)ncnc3o2)c1)C1CC1", "note": "(configuration not stated)", "IC50": 60}
{"compound": "O=C(Nc1ccc(-c2nc3c(N4CC5CCN(Cc6ccccc6)C5C4)ncnc3o2)cc1)C1CC1", "note": "(configuration not stated)", "IC50": 30}
{"compound": "O=C(Nc1cccc(-c2nc3c(N4CC5CCN(Cc6ccccc6)C5C4)ncnc3o2)c1)c1ccc(C(F)(F)F)cc1", "note": "(configuration not stated)", "IC50": "> 10000"}
{"compound": "c1ccc(CN2C[C@@H]3CCCN(c4ncnc5oc(-c6ccccc6)nc45)[C@@H]3C2)cc1", "IC50": 1000}
{"compound": "Fc1ccc(-c2ccc(-c3nc4c(N5CC6CCN(Cc7ccccc7)C6C5)ncnc4o3)cc2)cc1", "note": "(configuration not stated)", "IC50": "> 10000"}
{"compound": "Brc1ccc(-c2nc3c(N4CC5CCN(Cc6ccccc6)C5C4)ncnc3o2)cc1", "note": "(configuration not stated)", "IC50": 240}
{"compound": "O=C(Cc1ccccc1)Nc1ccc(-c2nc3c(N4CC5CCN(Cc6ccccc6)C5C4)ncnc3o2)cc1", "note": "(configuration not stated)", "IC50": 70}
{"compound": "O=C(Cc1ccccc1)Nc1cccc(-c2nc3c(N4CC5CCN(Cc6ccccc6)C5C4)ncnc3o2)c1", "note": "(configuration not stated)", "IC50": 210}
{"compound": "c1ccc(CN2CCC3CN(c4ncnc5oc(-c6ccccc6)nc45)CC32)cc1", "note": "(configuration not stated)", "IC50": 200}
{"compound": "Nc1ncnc2nc(-c3ccc(N4CCOCC4)nc3)cc(-c3cccc(Br)c3)c12", "IC50": 10}
{"compound": "CN(C)c1ccc(-c2nc3c(N4CC5CCN(Cc6ccccc6)C5C4)ncnc3o2)cn1", "note": "(configuration not stated)", "IC50": 10}
{"compound": "c1ccc(CN2CCC3CN(c4ncnc5oc(-c6cccnc6)nc45)CC32)cc1", "note": "(configuration not stated)", "IC50": 130}
